Reference: patent US20220016200A1, “PHARMACEUTICAL COMPOSITION FOR THE TREATMENT OF CYSTIC FIBROSIS” (GALENUS G.H. AG, priority 2018, published 2022)
Where two headings read alike, the source gives them in different places. Bridge positions count the residues as written; N and C are the ends. Square brackets hold non-standard residues; d marks the D form. Peptide text beside a SMILES is read from it. * marks the point of attachment. Heptanoyl(5-Me) = CCC(C)CCCC(=O)*; Dab = NCC[C@H](N)C(=O)O

Assays:
S. maltophilia 1237289 = test: Checkerboard colistin sulphate (CS) plus teicoplanin (TP), MIC/FIC and MBC/FBC; format: cell-based, Stenotrophomonas maltophilia; settings: agent alone, CAMHB, 5*10^5 CFU/ml; for MIC: S. maltophilia 1237289
Procedure: Checkerboard analysis to determine minimal inhibitory concentration (MIC)/fractional inhibitory concentration (FIC) and minimal […] (MBC)/fractional bacterial concentration (FBC) values of colistin sulphate (CS) plus teicoplanin (TP) for 6 Gram-negative strains with a bacterial load 5(1-10)*10^5 CFU/ml in a cation-adjusted Mueller-Hinton broth (CAMHB). • a. Antimicrobial stock solutions were prepared using sterile distilled water • b. CS was added along the ordinate; TP was added along the abscissa to 96 well, flat bottom, polystyrene panels with no treatment. Colistin alone was tested in triplicates. • c. Serial 2-fold dilutions starting with 640 μg/ml CS and 640 μg/ml TP were made; 15 μl volume of the serial dilutions were added for each agent to the appropriate wells; final volume at 30 μl • d. For each agent tested alone an additional 15 μl media was added to the well. 30 μl were added in control wells where none of the agent was tested. The negative control well contains 150 μl media without any additions • e. From an overnight bacterial culture in tryptic soy broth, 100 μL was added to 10 mL of fresh tryptic soy broth. This was then incubated at 37° C. for 1.5 hour at 180 rpm. • f. Bacteria in 120 μl CAMHB were added to each well (end concentration 5(1-10)*10^5 CFU/ml) • g. […] Turbidity at OD600 is determined with a plate photometer • i. By using a one-time inoculator 3 μl from each well of the 96-well plate were transferred to three blood agar plates. The plates were incubated over night at 37° C. in an ambient air incubator • j. MIC values are defined as lowest concentration which restricts bacterial growth to OD600 ≤0.1 • k. MBC values were determined by visual reading the lowest concentration which inhibits 99.9% of the growth of bacteria in the wells • l. Determination of the fractional inhibitory concentration (FIC) index and fractional bactericidal concentration (FBC) index and characterization of antimicrobial interactions was assessed […]
FIC calculation was carried out as: (MIC of drug A, tested in combination)/(MIC of drug A, tested alone)+(MIC of drug B, tested in combination)/(MIC of drug B, tested alone). FBC calculation was carried out just as well […]
Interactive categories were calculated from checkerboard analysis using MIC results from testing each agent alone and MIC results from the combination wells adjacent to the wells with growth in them […]
b. Indifference; FIC/FBC>0.5 to<4.0 c. Antagonism; FIC/FBC≥4.0 f. S. maltophilia 1237289 (IHMA), colistin resistant

A. guillouiae 1285286 = test: Checkerboard fusidic acid (FD) and colistin sulfate (CS), MIC/FIC and MBC/FBC; format: cell-based, Acinetobacter guillouiae
Procedure: Checkerboard assays between fusidic acid (FD) and colistin sulfate (CS) with a bacterial load 5(1-10)*10^5 CFU/ml in cationic adapted Mueller Hinton broth (CAMHB). • a. Antimicrobial stock solutions were prepared using sterile distilled water; • b. CS was added along the ordinate; FD was added along the abscissa to 96 well, flat bottom, polystyrene panels with no treatment. Colistin alone was tested in triplicates; • c. Serial 2-fold dilutions starting with 640 […] CS and 640 μg/ml FD were made; 15 μl volume of the serial dilutions were added for each agent to the appropriate wells—final volume at 30 μl; • d. For each agent tested alone an additional 15 μl media was added to the well. 30 μl were added in control wells where none of the agent was tested. The negative control well contains 150 μl media without any additions; • e. From an overnight bacterial culture in tryptic soy broth, 100 μL was added to 10 mL of fresh tryptic soy broth. This was then incubated at 37° C. for 1.5 hour at 180 rpm; • f. Bacteria in 120 μl CAMHB were added to each well (end concentration 5(1-10)*10^5 CFU/ml); • g. Plates were incubated at 37° C. in an ambient air incubator for 24 h • h. Turbidity at OD600 is determined with a plate photometer • i. By using a one-time inoculator 3 μl from each well of the 96-well plate were transferred to three blood agar plates. The plates were incubated over night at 37° C. in an ambient air incubator; • j. MIC values are defined as lowest concentration which restricts bacterial growth to OD600≤0.1; • k. MBC values were determined by visual reading the lowest concentration which inhibits 99.9% of the growth of bacteria in the wells; • l. Determination of the fractional inhibitory concentration (FIC) index and fractional bactericidal concentration (FBC) index and characterization of antimicrobial interactions was assessed;
FIC calculation was carried out as: (MIC of drug A, tested in combination)/(MIC of drug A, tested alone)+(MIC of drug B, tested in combination)/(MIC of drug B, tested alone). FBC calculation was carried out just as well;
Interactive categories were calculated from checkerboard analysis using MIC results from testing each agent alone and MIC results from the combination wells adjacent to the wells with growth in them.
Determination of the fractional inhibitory concentration (FIC) index and fractional bactericidal concentration (FBC) index and characterization of antimicrobial interactions was assessed:
(ii) Indifference; FIC/FBC>0.5 to <4.0
(iii) Antagonism; FIC/FBC≥4.0
d. Acinetobacter guillouiae 1285286 (IHMA), colistin resistant (2xCS 2/4)

In the case of `CCC(C)CCCC(=O)N[C@@H](CCN)C(=O)N[C@H](C(=O)N[C@@H](CCN)C(=O)N[C@H]1CCNC(=O)[C@H]([C@@H](C)O)NC(=O)[C@H](CCN)NC(=O)[C@H](CCN)NC(=O)[C@H](CC(C)C)NC(=O)[C@@H](CC(C)C)NC(=O)[C@H](CCN)NC1=O)[C@@H](C)O` (stereo partly drawn) [CS, colistin sulphate] ({Heptanoyl(5-Me)}-[Dab]T[Dab][Dab][Dab][dL]L[Dab][Dab]T; lactam 4-C), the MIC (S. maltophilia 1237289; after 48 h growth (values in brackets)) is reported as “(8) mg/l”, the MIC (S. maltophilia 1237289; Stenotrophomonas maltophilia, 1237289, 24 h, 24 h, read-out: MIC) is reported as no more than 0.5 µg/mL and the MBC (S. maltophilia 1237289; Stenotrophomonas maltophilia, S. maltophilia, second of two rows (strain number not given; by order 1237289)) is reported as 8 µg/mL. For the same molecule, the MIC (A. guillouiae 1285286; A. guillouiae 1285286, agent alone, CAMHB, 1*10^6 CFU/ml, 24 h) was 2 mg/1l, the MBC (A. guillouiae 1285286; Acinetobacter guillouiae, 1285286, A. guillouiae, agent alone, CAMHB, 1*10^6 CFU/ml, read-out: MBC) was 4 µg/mL and the MBC (A. guillouiae 1285286; organism list of Example 3, Acinetobacter guillouiae 1285286, 2x, read-out: Colistin CS MBC) was 4 µg/mL. For the same molecule, the MIC (A. guillouiae 1285286; organism list of Example 3, Acinetobacter guillouiae 1285286, 2x, read-out: Colistin CS MIC) was 2 µg/mL.
